Measured values: patent US12139520B2 (priority 2020, dated 2024)
Numbered stars: 1 amine (or outer) side, 2 acyl side, 3 side chain; on linkers, the order of the positions; unused ones are H or OH. Bridge positions count the residues as written; N and C are the ends. Square brackets hold non-standard residues; d marks the D form. Peptide text beside a SMILES is read from it. * marks the point of attachment. C20 diacid = O=C(O)CCCCCCCCCCCCCCCCCCC(=O)*; γGlu = O=C(O)[C@H](CCC(=O)[*:2])N[*:1]; Hyp = O=C(O)[C@@H]1C[C@@H](O)CN1

The compounds below were run against T1, hAMY3 receptor (Homo sapiens, UniProt O60896+P30988) (assay: cAMP assay for in vitro receptor activation, hAMY3-R). Settings: cAMP assay, hAMY3 receptor; read-out: hAMY3R EC50.
T1 sequence (P30988 25-474): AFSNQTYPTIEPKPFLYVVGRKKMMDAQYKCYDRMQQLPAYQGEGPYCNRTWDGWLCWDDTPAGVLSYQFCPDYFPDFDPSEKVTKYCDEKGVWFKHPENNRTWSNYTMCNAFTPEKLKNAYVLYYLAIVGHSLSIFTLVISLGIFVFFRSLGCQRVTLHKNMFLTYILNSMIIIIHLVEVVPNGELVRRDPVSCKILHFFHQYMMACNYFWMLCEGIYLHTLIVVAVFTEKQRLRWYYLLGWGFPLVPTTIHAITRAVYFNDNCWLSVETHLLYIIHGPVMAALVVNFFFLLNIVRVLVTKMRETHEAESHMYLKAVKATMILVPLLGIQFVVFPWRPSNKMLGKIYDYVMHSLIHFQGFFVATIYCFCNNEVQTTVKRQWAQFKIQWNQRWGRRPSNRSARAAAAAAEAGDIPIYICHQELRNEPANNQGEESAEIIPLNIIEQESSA
T1 sequence (O60896 24-148 partner): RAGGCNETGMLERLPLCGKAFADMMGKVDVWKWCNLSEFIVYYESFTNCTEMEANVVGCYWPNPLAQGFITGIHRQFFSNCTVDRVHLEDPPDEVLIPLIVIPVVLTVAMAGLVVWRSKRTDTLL
Type: cell-based
Procedure, shortened: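 Monoclonal cell line stably overexpressing hAMY3 receptor, plated in DPBS with 0.05% casein and 0.5 mM IBMX, was stimulated with graded compound doses for 30 min at room temperature. cAMP accumulation was read by time-resolved FRET one hour after adding detection reagents.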

EC50 [nM]	Structure (SMILES)
0.011	CC[C@H](C)[C@H](NC(=O)[C@H](CCC(N)=O)NC(=O)[C@H](Cc1ccc(O)cc1)NC(=O)[C@H](C)NC(=O)[C@H](CC(C)C)NC(=O)[C@H](CCCNC(=N)N)NC(=O)[C@H](CCC(N)=O)NC(=O)[C@@H](NC(=O)[C@@H](NC(=O)[C@@H]1CSSC[C@H](NC(=O)[C@H](CCCCN)NC(=O)CC[C@H](NC(=O)CCCCCCCCCCCCCCCCCCC(=O)O)C(=O)O)C(=O)N[C@@H](CC(N)=O)C(=O)N[C@@H]([C@@H](C)O)C(=O)N[C@@H](C)C(=O)N[C@@H]([C@@H](C)O)C(=O)N1)[C@@H](C)O)C(C)C)C(=O)N[C@@H](Cc1ccc(O)cc1)C(=O)N[C@@H](CCC(N)=O)C(=O)N[C@@H](Cc1ccccc1)C(=O)N[C@H](C(=O)N[C@@H](CC(=O)O)C(=O)N[C@@H](CCCCN)C(=O)N[C@@H](CC(=O)O)C(=O)N[C@@H](CCCCN)C(=O)N[C@@H](CC(=O)O)C(=O)N[C@@H](CC(N)=O)C(=O)N[C@H](C(=O)N[C@@H](C)C(=O)N1CCC[C@H]1C(=O)N1CCC[C@H]1C(=O)N[C@H](C(=O)N[C@@H](CC(N)=O)C(=O)N[C@H](C(=O)NCC(=O)N[C@@H](CO)C(=O)N[C@@H](CC(N)=O)C(=O)NCC(=O)N1C[C@H](O)C[C@H]1C(N)=O)C(C)C)[C@@H](C)O)C(C)C)[C@@H](C)O [compound 47] ({C20 diacid-γGlu}-KCNTATCTVQRLAYQIYQFTDKDKDNVAPPTNVGSNG[Hyp]-NH2; disulfide 2-7)
0.047	CC[C@H](C)[C@H](NC(=O)[C@H](CCCCN)NC(=O)[C@H](CO)NC(=O)[C@H](CCCNC(=N)N)NC(=O)[C@@H]1CCCN1C(=O)[C@H](C)NC(=O)[C@@H](NC(=O)[C@H](CC(N)=O)NC(=O)[C@H](CC(=O)O)NC(=O)[C@H](CCCCN)NC(=O)[C@H](CC(=O)O)NC(=O)[C@H](CCCCN)NC(=O)[C@H](CC(=O)O)NC(=O)[C@@H](NC(=O)[C@H](Cc1ccccc1)NC(=O)[C@H](CCC(N)=O)NC(=O)[C@H](Cc1ccc(O)cc1)NC(=O)[C@@H](NC(=O)[C@H](CCC(N)=O)NC(=O)[C@H](Cc1c[nH]cn1)NC(=O)[C@H](C)NC(=O)[C@H](CC(C)C)NC(=O)[C@H](CCCNC(=N)N)NC(=O)[C@H](CCC(N)=O)NC(=O)[C@@H](NC(=O)[C@@H](NC(=O)[C@@H]1CSSC[C@H](NC(=O)CN)C(=O)N[C@@H](CCCNC(=N)N)C(=O)N[C@@H]([C@@H](C)O)C(=O)NCC(=O)N[C@@H]([C@@H](C)O)C(=O)N1)[C@@H](C)O)C(C)C)[C@@H](C)CC)[C@@H](C)O)C(C)C)C(=O)NCC(=O)N1CCC[C@H]1C(=O)N[C@@H](CC(N)=O)C(=O)NCC(=O)N1C[C@H](O)C[C@H]1C(N)=O [compound 157] (H-GCRTGTCTVQRLAHQIYQFTDKDKDNVAPRSKIGPNG[Hyp]-NH2; disulfide 2-7; N-terminus assumed)
0.063	CC[C@H](C)[C@H](NC(=O)[C@H](CCC(N)=O)NC(=O)[C@H](Cc1c[nH]cn1)NC(=O)[C@H](C)NC(=O)[C@H](CC(C)C)NC(=O)[C@H](CCCNC(=N)N)NC(=O)[C@H](CCC(N)=O)NC(=O)[C@@H](NC(=O)[C@@H](NC(=O)[C@@H]1CSSC[C@H](NC(=O)CN)C(=O)N[C@@H](CCCNC(=N)N)C(=O)N[C@@H](Cc2ccccc2)C(=O)NCC(=O)N[C@@H]([C@@H](C)O)C(=O)N1)[C@@H](C)O)C(C)C)C(=O)N[C@@H](Cc1ccc(O)cc1)C(=O)N[C@@H](CCC(N)=O)C(=O)N[C@@H](Cc1ccccc1)C(=O)N[C@H](C(=O)N[C@@H](CC(=O)O)C(=O)N[C@@H](CCCCN)C(=O)N[C@@H](CC(=O)O)C(=O)N[C@@H](CCCCN)C(=O)N[C@@H](CC(=O)O)C(=O)N[C@@H](CC(N)=O)C(=O)N[C@H](C(=O)N[C@@H](C)C(=O)N1CCC[C@H]1C(=O)N[C@@H](CCCNC(=N)N)C(=O)N[C@@H](CO)C(=O)N[C@@H](CCCCN)C(=O)N[C@H](C(=O)N[C@@H](CO)C(=O)N1CCC[C@H]1C(=O)N[C@@H](CCC(N)=O)C(=O)NCC(=O)N1C[C@H](O)C[C@H]1C(N)=O)[C@@H](C)CC)C(C)C)[C@@H](C)O [compound 169] (H-GCRFGTCTVQRLAHQIYQFTDKDKDNVAPRSKISPQG[Hyp]-NH2; disulfide 2-7; N-terminus assumed)
0.017	CC[C@H](C)[C@H](NC(=O)[C@H](CCC(N)=O)NC(=O)[C@H](Cc1c[nH]cn1)NC(=O)[C@H](C)NC(=O)[C@H](CC(C)C)NC(=O)[C@H](CCCNC(=N)N)NC(=O)[C@H](CCC(N)=O)NC(=O)[C@@H](NC(=O)[C@@H](NC(=O)[C@@H]1CSSC[C@H](NC(=O)[C@H](CCCCN)NC(=O)CC[C@H](NC(=O)CCCCCCCCCCCCCCCCCCC(=O)O)C(=O)O)C(=O)N[C@@H](CC(N)=O)C(=O)N[C@@H]([C@@H](C)O)C(=O)N[C@@H](C)C(=O)N[C@@H]([C@@H](C)O)C(=O)N1)[C@@H](C)O)C(C)C)C(=O)N[C@@H](Cc1ccc(O)cc1)C(=O)N[C@@H](CCC(N)=O)C(=O)N[C@@H](Cc1ccccc1)C(=O)N[C@H](C(=O)N[C@@H](CC(=O)O)C(=O)N[C@@H](CCCCN)C(=O)N[C@@H](CC(=O)O)C(=O)N[C@@H](CCCCN)C(=O)N[C@@H](CC(=O)O)C(=O)N[C@@H](CC(N)=O)C(=O)N[C@H](C(=O)N[C@@H](C)C(=O)N1CCC[C@H]1C(=O)N[C@@H](CCCNC(=N)N)C(=O)N[C@H](C(=O)N[C@@H](CCCCN)C(=O)N[C@H](C(=O)NCC(=O)N[C@@H](CO)C(=O)N[C@@H](CC(N)=O)C(=O)NCC(=O)N1C[C@H](O)C[C@H]1C(N)=O)C(C)C)[C@@H](C)O)C(C)C)[C@@H](C)O [compound 99] ({C20 diacid-γGlu}-KCNTATCTVQRLAHQIYQFTDKDKDNVAPRTKVGSNG[Hyp]-NH2; disulfide 2-7)
0.022	CC[C@H](C)[C@H](NC(=O)[C@H](CCC(N)=O)NC(=O)[C@H](Cc1c[nH]cn1)NC(=O)[C@H](C)NC(=O)[C@H](CC(C)C)NC(=O)[C@H](CCCNC(=N)N)NC(=O)[C@H](CCC(N)=O)NC(=O)[C@@H](NC(=O)[C@@H](NC(=O)[C@@H]1CSSC[C@H](NC(=O)CN)C(=O)N[C@@H](CCCNC(=N)N)C(=O)N[C@@H](Cc2ccccc2)C(=O)NCC(=O)N[C@@H]([C@@H](C)O)C(=O)N1)[C@@H](C)O)C(C)C)C(=O)N[C@@H](Cc1ccc(O)cc1)C(=O)N[C@@H](CCC(N)=O)C(=O)N[C@@H](Cc1ccccc1)C(=O)N[C@H](C(=O)N[C@@H](CC(=O)O)C(=O)N[C@@H](CCCCN)C(=O)N[C@@H](CC(=O)O)C(=O)N[C@@H](CCCCN)C(=O)N[C@@H](CC(=O)O)C(=O)N[C@@H](CC(N)=O)C(=O)N[C@H](C(=O)N[C@@H](C)C(=O)N1CCC[C@H]1C(=O)N[C@@H](CCCNC(=N)N)C(=O)N[C@@H](CO)C(=O)N[C@@H](CCCCN)C(=O)N[C@H](C(=O)NCC(=O)N1CCC[C@H]1C(=O)N[C@@H](CCC(N)=O)C(=O)NCC(=O)N[C@@H](Cc1ccc(O)cc1)C(N)=O)C(C)C)C(C)C)[C@@H](C)O [compound 375] (H-GCRFGTCTVQRLAHQIYQFTDKDKDNVAPRSKVGPQGY-NH2; disulfide 2-7; N-terminus assumed)
0.008	CC[C@H](C)[C@H](NC(=O)[C@H](CCC(N)=O)NC(=O)[C@H](Cc1c[nH]cn1)NC(=O)[C@H](C)NC(=O)[C@H](CC(C)C)NC(=O)[C@H](CCCNC(=N)N)NC(=O)[C@H](CCC(N)=O)NC(=O)[C@@H](NC(=O)[C@@H](NC(=O)[C@@H]1CSSC[C@H](NC(=O)[C@@H](N)CCCCN)C(=O)N[C@@H](CC(N)=O)C(=O)N[C@@H](Cc2ccccc2)C(=O)N[C@@H](C)C(=O)N[C@@H]([C@@H](C)O)C(=O)N1)[C@@H](C)O)C(C)C)C(=O)N[C@@H](Cc1ccc(O)cc1)C(=O)N[C@@H](CCC(N)=O)C(=O)N[C@@H](Cc1ccccc1)C(=O)N[C@H](C(=O)N[C@@H](CC(=O)O)C(=O)N[C@@H](CCCCN)C(=O)N[C@@H](CC(=O)O)C(=O)N[C@@H](CCCCN)C(=O)N[C@@H](CC(=O)O)C(=O)N[C@@H](CC(N)=O)C(=O)N[C@H](C(=O)N[C@@H](C)C(=O)N1CCC[C@H]1C(=O)N1CCC[C@H]1C(=O)N[C@H](C(=O)N[C@@H](CCC(=O)O)C(=O)N[C@H](C(=O)NCC(=O)N[C@@H](CO)C(=O)N[C@@H](CC(N)=O)C(=O)NCC(=O)N1CCC[C@H]1C(N)=O)C(C)C)[C@@H](C)O)C(C)C)[C@@H](C)O [compound 18] (H-KCNFATCTVQRLAHQIYQFTDKDKDNVAPPTEVGSNGP-NH2; disulfide 2-7)
0.027	CC[C@H](C)[C@H](NC(=O)[C@H](CCC(N)=O)NC(=O)[C@H](Cc1c[nH]cn1)NC(=O)[C@H](C)NC(=O)[C@H](CC(C)C)NC(=O)[C@H](CCCNC(=N)N)NC(=O)[C@H](CCC(N)=O)NC(=O)[C@@H](NC(=O)[C@@H](NC(=O)[C@@H]1CSSC[C@H](NC(=O)[C@H](CCCCN)NC(=O)CC[C@H](NC(=O)CCCCCCCCCCCCCCCCCCC(=O)O)C(=O)O)C(=O)N[C@@H](CC(N)=O)C(=O)N[C@@H](Cc2ccccc2)C(=O)N[C@@H](C)C(=O)N[C@@H]([C@@H](C)O)C(=O)N1)[C@@H](C)O)C(C)C)C(=O)N[C@@H](Cc1ccc(O)cc1)C(=O)N[C@@H](CCC(N)=O)C(=O)N[C@@H](Cc1ccccc1)C(=O)N[C@H](C(=O)N[C@@H](CC(=O)O)C(=O)N[C@@H](CCCCN)C(=O)N[C@@H](CC(=O)O)C(=O)N[C@@H](CCCCN)C(=O)N[C@@H](CC(=O)O)C(=O)N[C@@H](CC(N)=O)C(=O)N[C@H](C(=O)N[C@@H](C)C(=O)N1CCC[C@H]1C(=O)N[C@@H](CCCNC(=N)N)C(=O)N[C@H](C(=O)N[C@@H](CCCCN)C(=O)N[C@H](C(=O)NCC(=O)N[C@@H](CO)C(=O)N[C@@H](CC(N)=O)C(=O)NCC(=O)N[C@@H](Cc1ccc(O)cc1)C(N)=O)C(C)C)[C@@H](C)O)C(C)C)[C@@H](C)O [compound 378] ({C20 diacid-γGlu}-KCNFATCTVQRLAHQIYQFTDKDKDNVAPRTKVGSNGY-NH2; disulfide 2-7)
